This passage reports IC50 and inhibition results from ChEMBL document CHEMBL5500426, “Directly Suppressing MYC Function with Novel Alkynyl-Substituted Phenylpyrazole Derivatives that Induce Protein Degradation and Perturb MYC/MAX Interaction” (J Med Chem, 2024).

The source made the active and inactive calls. No cut-off for these calls is given here. A value given as a limit tells only on which side of the number the result lay.

Data set [1] deals with PC-3. The experiment in a line: Antiproliferative activity against human PC-3 cells assessed as inhibition of cell growth incubated for 72 hrs by MTT assay. The note with it: PC-3, 72 h. Type of data set: functional, cell-based.
Data set [2] has as its system MDA-MB-231. The experiment in a line: Antiproliferative activity against human MDA-MB-231 cells assessed as inhibition of cell growth incubated for 72 hrs by MTT assay. The settings on record: MDA-MB-231, 72 h. Format: functional, cell-based. (Tetrazolium assays rely on reduction of a dye to a coloured formazan, in cell work by metabolically active cells.)
Data set [3] deals with c-Myc/c-Max (Homo sapiens) (UniProt P01106+P61244). The experiment in a line: Inhibition of MYC/MAX protein-protein interaction in human PC-3 cells at 10 uM incubated for 1 hr by Co-immunoprecipitation based immunoblotting analysis. Type of data set: cell-based. On the technique in general: Immunoblotting shows a protein as a band on a membrane.
c-Myc/c-Max (Homo sapiens), sequence (P01106 whole entry): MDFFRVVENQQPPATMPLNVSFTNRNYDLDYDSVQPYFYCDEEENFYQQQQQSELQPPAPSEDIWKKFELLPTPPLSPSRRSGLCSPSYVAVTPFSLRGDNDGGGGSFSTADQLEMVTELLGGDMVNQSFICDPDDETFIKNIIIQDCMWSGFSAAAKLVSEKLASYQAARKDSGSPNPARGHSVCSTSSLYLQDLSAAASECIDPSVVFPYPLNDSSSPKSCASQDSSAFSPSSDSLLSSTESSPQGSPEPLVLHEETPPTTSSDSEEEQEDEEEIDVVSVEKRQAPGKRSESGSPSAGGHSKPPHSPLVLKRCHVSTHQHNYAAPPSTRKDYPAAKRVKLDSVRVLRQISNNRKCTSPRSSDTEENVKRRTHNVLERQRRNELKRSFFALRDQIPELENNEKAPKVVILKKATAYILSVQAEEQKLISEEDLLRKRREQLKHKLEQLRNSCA
c-Myc/c-Max (Homo sapiens), sequence (P61244 2-160 partner limits assumed): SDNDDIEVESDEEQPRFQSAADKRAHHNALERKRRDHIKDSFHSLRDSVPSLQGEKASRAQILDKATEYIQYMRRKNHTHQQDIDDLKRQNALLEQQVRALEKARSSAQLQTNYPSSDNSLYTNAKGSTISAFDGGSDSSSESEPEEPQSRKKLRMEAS
Data set [4] deals with MV4-11. The data set can be described thus: Antiproliferative activity against human MV4-11 cells assessed as inhibition of cell growth incubated for 72 hrs by MTT assay. Format: functional, cell-based. The settings on record: MV4-11, 72 h.
Data set [5] deals with HepG2. The experiment in a line: Antiproliferative activity against human HepG2 cells assessed as inhibition of cell growth incubated for 72 hrs by MTT assay. Type of data set: functional, cell-based. The note with it: HepG2, 72 h.
Data set [6] addresses Myc proto-oncogene protein (Homo sapiens) (UniProt P01106). The experiment in a line: Inhibition of MYC in human PC-3 cells assessed as downregulation of MYC expression incubated for 24 hrs by Western blotting analysis. Format: cell-based.
Data set [7] deals with MDA-MB-468. The experiment in a line: Antiproliferative activity against human MDA-MB-468 cells assessed as inhibition of cell growth incubated for 72 hrs by MTT assay. Type of data set: functional, cell-based. The settings on record: MDA-MB-468, 72 h.
Data set [8] can be described thus: Cytotoxicity against human HUVEC cells assessed as inhibition of cell growth incubated for 72 hrs by MTT assay. Format: toxicity, cell-based.
Data set [9] concerns the target Myc proto-oncogene protein (Homo sapiens) (UniProt P01106). The experiment in a line: Inhibition of MYC in human PC-3 cells assessed as downregulation of MYC expression at 1 uM incubated for 24 hrs by Western blotting analysis relative to control. Format: cell-based.
In data set [10] the test system is HCT-116. The experiment in a line: Antiproliferative activity against human HCT-116 cells assessed as inhibition of cell growth incubated for 72 hrs by MTT assay. The settings on record: HCT-116, 72 h. Type of data set: functional, cell-based.
The test system of data set [11] is Myc-CaP. The data set can be described thus: Antiproliferative activity against mouse Myc-CaP cells assessed as inhibition of cell growth incubated for 72 hrs by MTT assay. Format: functional, cell-based.
Data set [12] has as its system HL-60. The data set can be described thus: Antiproliferative activity against human HL-60 cells assessed as inhibition of cell growth incubated for 72 hrs by MTT assay. Format: functional, cell-based. The note with it: HL-60, 72 h.
Data set [13] relates to A549. The data set can be described thus: Antiproliferative activity against human A549 cells assessed as inhibition of cell growth incubated for 72 hrs by MTT assay. Type of data set: functional, cell-based. The note with it: A549, 72 h.
Data set [14] relates to SGC-7901. The experiment in a line: Antiproliferative activity against human SGC-7901 cells assessed as inhibition of cell growth incubated for 72 hrs by MTT assay. Format: functional, cell-based. The settings on record: SGC-7901, 72 h.
The subject of data set [15] is SK-N-BE(2). The experiment in a line: Antiproliferative activity against human SK-N-BE(2) cells assessed as inhibition of cell growth incubated for 72 hrs by MTT assay. The note with it: SKNBE2, 72 h. Type of data set: functional, cell-based.
In data set [16] the test system is SK-OV-3. The data set can be described thus: Antiproliferative activity against human SK-OV-3 cells assessed as inhibition of cell growth incubated for 72 hrs by MTT assay. Type of data set: functional, cell-based. The settings on record: SK-OV-3, 72 h.
Data set [17] can be described thus: Cytotoxicity against human GES1 cells assessed as inhibition of cell growth incubated for 72 hrs by MTT assay. Type of data set: toxicity, cell-based.

Usually IC50 stands for the concentration needed to halve the response being measured. For orientation: inhibition means how much of the control response was suppressed.

Myc proto-oncogene protein (Homo sapiens), sequence (P01106 whole entry): as the sequence (P01106 whole entry) above

Consider `CN1CCN(CC#Cc2ccc(-c3cc(C(F)(F)F)nn3C)c(O)c2-c2ccc(Cl)c(C(F)(F)F)c2)CC1`, for which the IC50 in data set [1] is 20.2 µM. `Oc1c(-c2cc(C(F)(F)F)n[nH]2)ccc(OCc2ccc(Cl)cc2)c1C#CCN1CCC(N2CCOCC2)CC1`: in data set [1], the IC50 was above 100 µM. On to `CN1CCN(CCC#Cc2c(OCc3ccc(Cl)cc3)ccc(-c3cc(C(F)(F)F)n[nH]3)c2O)CC1`, for which, in data set [1], the IC50 turned out to be 15.3 µM. Turning to `Oc1c(-c2cc(C(F)(F)F)n[nH]2)ccc(C#CCCN2CC3(COC3)C2)c1-c1ccc(Cl)c(C(F)(F)F)c1`, the IC50 in data set [1] worked out at 2.8 µM. In the case of `CN1CCN(CC#Cc2ccc(-c3cc(C(F)(F)F)n[nH]3)c(O)c2-c2ccc(Cl)c(C(F)(F)F)c2)CC1`, the IC50 in data set [1] came out at 4.13 µM.

`CN(C)CC#Cc1c(OCc2ccc(Cl)cc2)ccc(-c2cc(C(F)(F)F)n[nH]2)c1O`: in data set [1], the IC50 is above 100 µM. `Oc1c(-c2cc(C(F)(F)F)n[nH]2)ccc(OCc2ccc(Cl)cc2)c1C#CCN1CCN(C2COC2)CC1`: in data set [1], the IC50 was found to be 8.24 µM. In the case of `Oc1c(-c2cc(C(F)(F)F)n[nH]2)ccc(OCc2ccc(Cl)cc2)c1C#CCCN1CCCCC1`, the IC50 in data set [1] came out at 3.65 µM. For `Oc1c(-c2cc(C(F)(F)F)n[nH]2)ccc(OCc2ccc(Cl)cc2)c1C#CCN1CCCCC1`, the half-maximal inhibitory concentration (IC50) in data set [1] came to 44 µM. Consider `OCCCC#Cc1c(OCc2ccc(Cl)cc2)ccc(-c2cc(C(F)(F)F)n[nH]2)c1O`, for which the 50% inhibitory concentration (IC50) in data set [1] is 12.9 µM. `CC(C)(O)CCC#Cc1ccc(-c2cc(C(F)(F)F)n[nH]2)c(O)c1-c1ccc(Cl)c(C(F)(F)F)c1`: the IC50 in data set [1] amounted to 2.36 µM. Same read-out and setting: under `Oc1c(-c2cc(C(F)(F)F)n[nH]2)ccc(OCc2ccc(Cl)cc2)c1C#CCN1CCOCC1` stands 73.2 µM. Same read-out and setting: the value for `CN1CCN(CC#Cc2c(OCc3ccc(Cl)cc3)ccc(-c3cc(C(F)(F)F)nn3C)c2O)CC1` was 16.6 µM; that for `Oc1c(-c2cc(C(F)(F)F)n[nH]2)ccc(OCc2ccc(Cl)cc2)c1C#CCN1CC2(COC2)C1` was 23.6 µM; that for `CC(C)(O)CCC#Cc1c(OCc2ccc(Cl)cc2)ccc(-c2cc(C(F)(F)F)n[nH]2)c1O` was 6.7 µM. As for `Oc1c(-c2cc(C(F)(F)F)n[nH]2)ccc(C#CCN2CCOCC2)c1-c1ccc(Cl)c(C(F)(F)F)c1`, the IC50 in [1] turned out to be 2.02 µM. For `Oc1c(-c2cc(C(F)(F)F)n[nH]2)ccc(C#CCCN2CCCCC2)c1-c1ccc(Cl)c(C(F)(F)F)c1`, the IC50 in [1] came to 3.38 µM. As to `Oc1c(-c2cc(C(F)(F)F)n[nH]2)ccc(OCc2ccc(Cl)cc2)c1C#CCCCN1CCOCC1`, the IC50 in [1] stood at 9.89 µM. For `Cn1nc(C(F)(F)F)cc1-c1ccc(C#CCN2CCOCC2)c(-c2ccc(Cl)c(C(F)(F)F)c2)c1O`, in data set [1], the IC50 turned out to be 58.5 µM. For `Cn1nc(C(F)(F)F)cc1-c1ccc(OCc2ccc(Cl)cc2)c(-c2ccc(Cl)c(C(F)(F)F)c2)c1O`, the IC50 turned out to be 5.84 µM in data set [2]; 1.53 µM in [4]; 1.57 µM in [5]; 7.08 µM in data set [7]; 1.37 µM in data set [10]; 4.16 µM in data set [11]. The IC50 in data set [12] is 3.78 µM; in [13], 4.31 µM; in [14], 4.37 µM; in data set [1] it was 6.62 µM; in data set [15] it was 1.74 µM; in [16], 1.74 µM. In data set [3], the inhibition entry was “Active”. Moreover, the inhibition entry in data set [6] was “Dose-Dependent Effect”; in [9], 31%. In addition, the IC50 at 72 h in [8] and in data set [17] was above 100 µM each time. For `CN1CCN(CCC#Cc2ccc(-c3cc(C(F)(F)F)n[nH]3)c(O)c2-c2ccc(Cl)c(C(F)(F)F)c2)CC1`, the IC50 in data set [1] was 3.07 µM.

Take `Oc1c(-c2cc(C(F)(F)F)n[nH]2)ccc(OCc2ccc(Cl)cc2)c1C#CCN1CCCC1`: the 50% inhibitory concentration (IC50) in data set [1] is above 100 µM.

For `Cn1nc(C(F)(F)F)cc1-c1ccc(OCc2ccc(Cl)cc2)c(C#CCN2CCOCC2)c1O`, in data set [1], the IC50 was above 100 µM. The same measure, in the same setting: under `Oc1c(-c2cc(C(F)(F)F)n[nH]2)ccc(OCc2ccc(Cl)cc2)c1C#CCCN1CCOCC1` stands 8.51 µM.

For `Oc1c(-c2cc(C(F)(F)F)n[nH]2)ccc(C#CCCN2CCN(C3COC3)CC2)c1-c1ccc(Cl)c(C(F)(F)F)c1`, the IC50 in data set [1] amounted to 1.89 µM. On to `CN1CCN(CC#Cc2c(OCc3ccc(Cl)cc3)ccc(-c3cc(C(F)(F)F)n[nH]3)c2O)CC1`, for which, in data set [1], the IC50 was 6.89 µM. Take `CN1CCN(CCCC#Cc2c(OCc3ccc(Cl)cc3)ccc(-c3cc(C(F)(F)F)n[nH]3)c2O)CC1`: in [1], the IC50 was 8.43 µM. Same read-out and setting: the value for `OCCC#Cc1c(OCc2ccc(Cl)cc2)ccc(-c2cc(C(F)(F)F)n[nH]2)c1O` was 31 µM. For `Oc1c(-c2cc(C(F)(F)F)n[nH]2)ccc(OCc2ccc(Cl)cc2)c1C#CCN1CCC(O)CC1`, the IC50 in data set [1] stood at 33.4 µM. As for `Oc1c(-c2cc(C(F)(F)F)n[nH]2)ccc(OCc2ccc(Cl)cc2)c1C#CCCN1CC2(COC2)C1`, the IC50 in [1] came to 4.88 µM. For `Cn1nc(C(F)(F)F)cc1-c1ccc(C#CCCC(C)(C)O)c(-c2ccc(Cl)c(C(F)(F)F)c2)c1O`, the half-inhibitory concentration (IC50) in data set [1] came out at 30.1 µM. On to `Oc1c(-c2cc(C(F)(F)F)n[nH]2)ccc(OCc2ccc(Cl)cc2)c1C#CCCN1CCC(O)CC1`, for which the IC50 in [1] came out at 6.07 µM. Regarding `Oc1c(-c2cc(C(F)(F)F)n[nH]2)ccc(OCc2ccc(Cl)cc2)c1C#CCCCN1CCCCC1`, the IC50 in data set [1] is 4.42 µM. Regarding `Cn1nc(C(F)(F)F)cc1-c1ccc(OCc2ccc(Cl)cc2)c(C#CCCCO)c1O`, the IC50 in data set [1] is above 100 µM. Take `Cn1nc(C(F)(F)F)cc1-c1ccc(C#CCCCO)c(-c2ccc(Cl)c(C(F)(F)F)c2)c1O`: the IC50 in data set [1] turned out to be 65.5 µM.
